The values below come from a melting point compilation (Tetko et al.; mined from patent text by program, amines drawn as free bases though some values may be those of a salt).

A value given as a limit tells only on which side of the number the result lay.

Broadly, the melting point is the temperature of the solid-liquid transition. On to `O=C(O)c1cc(F)c(C(F)(F)F)cc1[N+](=O)[O-]`, for which the melting point lay in the range of 142 to 145 °C.

Consider `NC(c1ccccc1CNc1ccnc2cc(Cl)ccc12)c1ccnc2cc(Cl)ccc12` (configuration not stated), for which the melting point is more than 250 °C.

The compound `CC(=O)c1cccc2c1Oc1c(C(C)=O)cccc1N2[Si](C)(C)C(C)(C)C` returned a melting point of 146 °C.

For `CNC(=O)c1cnn(-c2ccc(Cl)cc2Cl)c1C(F)(F)F`, the melting point is 143 to 144 °C.

For `Cc1cc(Nc2ccc(C#N)cc2)c([N+](=O)[O-])c(C)n1`, the melting point is 171 to 172 °C.

Turning to `COC(=O)C1=C(C)NC(C(OC)OC)=C(C(=O)OC)C1c1cccc([N+](=O)[O-])c1` (configuration not stated), the melting point was 99 to 100 °C.

`CN(C)c1ccc(C(=O)Nc2ccccc2CCC2CCCCN2C)cc1` (configuration not stated): the melting point was in the range of 115 to 116 °C.

`NC(CCCCNC(=O)OCc1ccccc1)C(=O)NC1c2ccccc2-c2ccccc21` (configuration not stated): the melting point was more than 280 °C.

`CC(C)(C)NC(=O)[C@@H]1C[C@H](O)CN1C(=O)OCc1ccccc1` gave a melting point of 129 to 130 °C.

Take `C=CCOc1ccc(C2C(=O)Oc3c2cc(C(C)(C)C)cc3C(C)(C)C)cc1` (configuration not stated): the melting point lay in the range of 112 to 114 °C.

`OCCn1ccc2cccnc21` displayed a melting point of 52.7 to 53.3 °C.

Consider `COC(=O)C1=C(O)c2ccccc2S(=O)(=O)N1`, for which the melting point lay in the range of 173 to 175 °C.

`Nc1cn(-c2cncnc2)nc1Cl` displayed a melting point of 146 to 148 °C.

`COc1ccc(Oc2ccc(NC(=O)N3CCc4ccccc4CC3)cn2)cc1` registered a melting point of 156 to 157 °C.

The compound `Cc1cc(S(=O)(=O)c2ccc([N+](=O)[O-])cc2)cc(Br)n1` gave a melting point of 154 to 156 °C.

The compound `CN1C(C)(C)CC(OC(=O)NNC(=O)OC2CC(C)(C)N(C)C(C)(C)C2)CC1(C)C` gave a melting point of 189 to 191 °C.

Regarding `CC(C)C(=O)NCCCC1COCc2nc3c(N)nc4ccccc4c3n21` (configuration not stated), the melting point fell in the range of 207 to 208 °C.

For the compound `CN1C(=O)[C@H](NC(=O)CCc2ccccc2)N=C(c2ccccc2)c2ccccc21`, the melting point came to 179 °C.

Compound `CC1COc2cnc3cc(Cl)ccc3c2N1` (configuration not stated) yielded a melting point of 215 to 217 °C.

`Clc1ccc2nc(Cl)cnc2c1` yielded a melting point of 152 °C.

In turn, `CN=C(NC#N)NCCSCc1ccc(CNC)o1` returned a melting point of 81 to 85 °C.

In turn, `CC(=O)N[C@@H](Cc1ccc(-c2cc3ccccc3c3ccccc23)cc1)C(=O)O` gave a melting point of 128 to 132 °C.

As to `CCN1C(=O)CC(C)(C)c2ccc(C(=O)O)cc21`, the melting point fell in the range of 202 to 204 °C.

Regarding `CCC(=O)C1=C(O)CC(c2c(C)cc(C)c([N+](=O)[O-])c2C)CC1=O` (configuration not stated), the melting point came out at 174 °C.

For the compound `O=C(O)c1ccc2cc(OCCCCCCc3cccc(O)c3O)ccc2c1`, the melting point is 167 to 171 °C.

`COC(=O)CNCCNC(=O)c1nc(Cl)c(N)nc1N` registered a melting point of 145 to 146 °C.

`C=C[C@@]12CCC[C@@H](C#N)[C@@H]1C(=O)CC2` had a melting point of 41 to 42 °C.

`O=C1C2=C(c3ccccc3)N(c3ccccc3)C(=O)C2=C(c2ccccc2)N1c1ccccc1`: the melting point was more than 300 °C.

Turning to `N#Cc1cc(C(=O)CCl)cs1`, the melting point is 94 to 98 °C.

The compound `NNC(=O)CCCCCCCCOC1OC(CO)C(O)C(O)C1O` (configuration not stated) came in with a melting point of 194 °C.

`COC(=O)COc1cccc2c1CCCC2=O`: the melting point fell in the range of 82 to 83 °C.

On to `COc1cc(-c2ccc(C)cc2)cc2oc(=O)c(C)c(C)c12`, for which the melting point is 123 °C.

`COc1cccc(CSCCNC(=O)c2c(Cl)cccc2Cl)c1OC` displayed a melting point of 108 to 110 °C.

`O=S(Sc1ccccc1)c1ccccc1` (configuration not stated): the melting point lay within 69 to 70 °C.

Consider `Cc1ccc(-c2cc3cc(-c4ccccc4)ccc3o2)cc1`, for which the melting point is 156 to 158 °C.

`O=C(CBr)Nc1coc2ccccc2c1=O` had a melting point of 198 °C.

In turn, `CCCN1C(=O)C(C(=O)Nc2ccc(Cl)cc2)S(=O)(=O)c2ccccc21` (configuration not stated) registered a melting point of 189 to 190 °C.
